Assay results from US7214506B2, “Method for treating onychomycosis” (Kaken Pharmaceutical Co., Ltd., priority 1999, dated 2007).
Marks after values point to notes of the source that are not given here.

Tests used:
[1] = system: Trichophyton mentagrophytes SM-110 strain; experiment: Evaluation of drug effect on tinea pedis, guinea pig model, present evaluation method; format: in vivo; settings: two days after last treatment; 30 consecutive days; topical 1% solution 0.1 ml or oral 40 mg/kg; detection limit 20 CFU/feet
Description: A fungal solution was prepared in the same manner as in the pretreatment of Comparative Example 1 except for changing Trichophyton mentagrophytes KD-04 strain to Trichophyton mentagrophytes SM-110 strain. A guinea pig model of tinea unguium and tinea pedis was prepared in the same manner as in the above-mentioned preparation of the guinea pig model in interdigital tinea pedis except for changing male Hartley strain guinea pigs of 7 weeks age to male Hartley strain guinea pigs of 5 weeks age and except that the paper disc and the bandage was removed 21 days after the infection changing from seven days after the infection. The invasion of dermatophytes in plantar skin and nail plate was observed 60 days after the infection. As test compounds, solutions were prepared by dissolving raw powders of KP-103, amorolfine and terbinafine in a concentration of 1% thereof to mixture solution of polyethylene grycole #400: ethanol (75:25 v/v), respectively. Capsule of terbinafine was prepared by crushing the marketed tablet, suspending in the concentration of 100 mg/ml into Miglyol 812 (available from Mitsuba trade Co., Ltd)with glass homogenizer uniformity, and injecting the resulting suspension into each capsule in the concentration of 40 mg/kg depending on body weight measured on administration day. A solution of KP-103, amorolfine or terbinafine in the amount of 0.1 ml was applied a plantar skin and nail of one foot once a day for 30 consecutive days. In case of terbinafine capsule, one capsule (40 mg/kg) was administered orally. Skin pieces of hind feet were excised from each animal described in Example 4. A removal of the drug and a determination of the remaining drug were carried out in the same as in Example 2 except that dialysis for removing the drug carried out for 3 days and that dialysis water was changed six times in total. The sufficient removal of the remaining drug was confirmed. Then the drug effect was evaluated in the same manner as in Example 4 (detection limit: 20 CFU/feet). Those results were shown in FIG. 4 and Table 4 thereof was made. In FIG. 4, the number of CFU in the skin in each treated group was plotted and the mean number of CFU was shown by horizontal line and numerical value.

[2] = system: Trichophyton mentagrophytes SM-110 strain; experiment: Evaluation of drug effect on tinea unguium, guinea pig model, present evaluation method; format: in vivo; settings: two days after last treatment, 30 consecutive days, topical 1% solution 0.1 ml or oral 40 mg/kg; for The number of feet with fungus-negative nail/Total number of infected feet: detection limit 10 CFU/feet
Description: A fungal solution was prepared in the same manner as in the pretreatment of Comparative Example 1 except for changing Trichophyton mentagrophytes KD-04 strain to Trichophyton mentagrophytes SM-110 strain.
A guinea pig model of tinea unguium and tinea pedis was prepared in the same manner as in the above-mentioned preparation of the guinea pig model in interdigital tinea pedis except for changing male Hartley strain guinea pigs of 7 weeks age to male Hartley strain guinea pigs of 5 weeks age and except that the paper disc and the bandage was removed 21 days after the infection changing from seven days after the infection. The invasion of dermatophytes in plantar skin and nail plate was observed 60 days after the infection.
As test compounds, solutions were prepared by dissolving raw powders of KP-103, amorolfine and terbinafine in a concentration of 1% thereof to mixture solution of polyethylene grycole #400: ethanol (75:25 v/v), respectively. Capsule of terbinafine was prepared by crushing the marketed tablet, suspending in the concentration of 100 mg/ml into Miglyol 812 (available from Mitsuba trade Co., Ltd)with glass homogenizer uniformity, and injecting the resulting suspension into each capsule in the concentration of 40 mg/kg depending on body weight measured on administration day. A solution of KP-103, amorolfine or terbinafine in the amount of 0.1 ml was applied a plantar skin and nail of one foot once a day for 30 consecutive days. In case of terbinafine capsule, one capsule (40 mg/kg) was administered orally.
Animals were sacrificed two days after the last treatment. One hind foot was excised and wiped sufficiently with the cotton sweb containing alcohol. Nails (three in total) of one hind foot was excised and miced by a scissors. It was transferred into glass homogenizer and was homogenized adding 4 ml double-concentration phosphate buffered saline (Phosphate Buffered Salts, available from Takara Shuzo Co., Ltd.) containing 4% of trypsin derived from pig pancreas (available from BIOZYME Laboratories Limited). The reaction was carried out with shaking at 37° C. for one hour. After a centrifugation, the obtaining precipitate was washed three times by centrifuging with phosphate buffered saline in order to remove trypsin. The precipitate was suspended with 4 ml of distilled water and put into dialysis membrane (fractional molecular weight: 12,000–14,000, made of cellulose, available from VISKASE SALES Corporation). Dialysis was carried out into 3 L of distilled water at 4° C. for 14 days. Dialysis water was replaced twice a day 28 times in total. After a centrifugation, 1 ml of phosphate buffered saline was added to the precipitate obtained by removing the supernatant to prepare a suspension. This suspension was defined as stock solution and was diluted by tenfold. To Sabouraud dextrose agar medium (20 ml) containing the antibiotic substance described in Comparative Example 1 were added 100 μl of the stock solution or the dilution. […] The number of fungus-negative feet in the nail was counted. When the colony was appeared on the medium, the number of colonies (CFU) was counted to calculate the number of colonies in the nail of one foot by the dilution rate. After Kruskal Wallis Test was carried out for the number of fungi in the nail, the multiple comparison was carried out based on Tukey method to analysis the significant difference between groups. Those results were shown in FIG. 3 and Table 3 thereof was made. In FIG. 3, the number of CFU in nails in each treated group was plotted and the mean number of CFU was shown by horizontal line and numerical value.
Using the above-mentioned suspension, sufficient removal of the remaining drug was determined by the present evaluation method in the same manner as in Example 2.

[3] = system: Trichophyton mentagrophytes KD-04 strain; experiment: Conventional method for evaluating drug effect, guinea pig model of interdigital type of tinea pedis; format: in vivo; settings: for The number of fungus-negative feet/Total number of infected feet: 1% solution 0.1 ml topical once a day for 10 days, lanoconazole as marketed Astat solution; for The number of fungus-negative feet/Total number of infected feet, Conventional Method: five days after the last treatment, left feet, 1% solutions in PEG #400:ethanol vehicle
Description: (§1) Millipore Filter (made by Millipore Corporation, HA, diameter 47 mm, 0.45 μm) was placed on Brain-Heart-infusion agar medium (available from Nissui Pharmaceutical Co., LTD.), and 10^6 cells of microcondium of Trichophyton mentagrophytes KD-04 strain were applied thereon. The cultivation was carried out at 30° C. under 17% of CO2 for 7 days. After the cultivation, just amount of physiological saline containing 0.05% of Tween 80 was dropped on the filter and arthroconidia were collected using a platinum loop. After a hyphal mass was removed by a filtration with a sterile gauze, the number of arthroconidia in the filtrate was calculated by hemocytometer to adjust in concentration of 1×10^8 arthroconidia/ml to obtain a fungal inocula.
(§2) A guinea pig model of interdigital type of tinea pedis was prepared according to the method of Arika et al (Antimicrobial Agents and Chemotherapy, 36: 2523–2525, 1992). Concretely, in two hind foots of male Hartley strain guinea pigs of 7 weeks age, the interdigital skin was lightly abraded with sandpaper. A paper disc (AAdisc available from Whatmen International Ltd cut in 8×4 mm) moisten with the above-mentioned solution of the inoculated organism was applied onto the region between the interdigital toes of the hind feet and fixed using Self-adhering-Foam Pad (Restone 1560M; available from 3M) and adhesive stretch bandage (ELASTPORE; available from Nichiban Co., Ltd). The paper disc and the bandage were removed seven days after of the infection.
(§3) A marketed 1% lanoconazole solution (commercial name: Astat (trade name) solution) and a solution in which KP-103 was solved in a concentration of 1% in polyethylene grycole #400: ethanol (75:25 v/v) mixture were used as test substance. Each solution in amount of 0.1 ml was applied to the plantar skin once a day from 10 days after the infection for 10 days.
The conventional method was described as follows. For the infected control group without an application of the drug, the KP-103-treated group and the lanoconazole-treated group, 10 guinea pigs (hereinafter referred to “animal”) were employed, respectively. Animals of each group were sacrificed two days after and 30 days after the last treatment. Their two hind feet were excised and wiped with the cotton sweb containing alcohol sufficiently. A skin of whole sole was excised and cut into 15 skin pieces in total including 12 skin pieces from plantar parts and 3 skin pieces from an interdigital part. Each skin pieces were placed on 20 ml of Sabouraud dextrose agar medium (available from Difco laboratories) containing 50 μg of chloramphenicol (available from Wako Pure Chemical Industries, Ltd.), 100 μg of gentamicin (available from Schering-Plough Corporation), 50 μg of 5-fluorocytosine (available from Wako Pure Chemical Industries, Ltd.) and 1 mg of cycloheximide (available from nacalai tesque, Inc.) per ml. An antibiotic substance added to the medium was set to a condition which enable bacteria not to grow and which enable fungi to grow without problem. […] In the evaluation of the effect 30 days after last treatment, two days after the last treatment the treated feet were wiped with a cotton swab containing alcohol and fixed with the bandage in order to prevent a reinfection. The bandage was changed once a week.
A model was prepared according to Comparative Example 1. Lanoconazole being a test compound was used for a therapeutic experience as 1% solution with the same vehicle as KP-103. For the infected control group without an application of a drug, the KP-103-treated group and the lanoconazole-treated group, 20 animals were employed, respectively. The two hind feet were excised from each animal five days after the last treatment in the same manner as in Comparative Example 1. A total of 20 light feet were used for an evaluation by the conventional method, and a total of 20 right feet were used in the present evaluation method. […]

Trichophyton = experiment: In vitro antifungal activity against dermatophytes; format: cell-based
fungus = settings: 20 feet, cited from earlier work
[4] = system: Trichophyton mentagrophytes KD-04 strain; experiment: Present evaluation method (drug removed by dialysis, viable fungus detected), guinea pig model of interdigital tinea pedis; format: in vivo; settings: five days after the last treatment; for The number of fungus-negative feet/Total number of infected feet, Present evaluation method: right feet, drug removed by dialysis, detection limit 10 CFU/feet
Description: as §1, §2, §3
A model was prepared according to Comparative Example 1. Lanoconazole being a test compound was used for a therapeutic experience as 1% solution with the same vehicle as KP-103. […]

[5] = 30 days after the last treatment
[6] = two days after the last treatment

Row | Compound | Mean number of fungal cells in the skin (Log CFU ± SD) [1] | The number of feet with fungus-negative skin/Total number of infected feet [1] | Mean number of fungal cells in the nail (Log CFU ± SD) [2] [Log CFU] | The number of feet with fungus-negative nail/Total number of infected feet [2] | The number of fungus-negative feet/Total number of infected feet [3, 5] | The number of fungus-negative feet/Total number of infected feet, Conventional Method [3] | The number of fungus-negative feet/Total number of infected feet [3, 6] | growth inhibitory concentration against Trichophyton (Trichophyton) [ng/mL] | in vitro activity against Trichophyton relative to KP-103 (Trichophyton) | fungus-negative feet (fungus; 2 days after the last treatment) | feet with relapse (fungus; [5]) | The number of fungus-negative feet/Total number of infected feet, Present evaluation method [4] | rate of a fungus-negative foot evaluated by the present evaluation method [4] [%]
1 | CN(C/C=C/C#CC(C)(C)C)Cc1cccc2ccccc12 [Terbinafine solution, terbinafine] | <1.3** Log CFU | 10/10** | 3.21 ± 0.47 | 0/10 | – | – | – | – | – | – | – | – | –
2 | N#C/C(=C1/SCC(c2ccccc2Cl)S1)n1ccnc1 (stereo not shown) [Lanoconazole, lanoconazole] | – | – | – | – | 9/20 | 20/20 | 20/20 | 15.6 | eight-fold more active than KP-103 | all feet out of 20 feet | 11 out of 20 | 3/20 | –
3 | C=C1CCN([C@H](C)[C@](O)(Cn2cncn2)c2ccc(F)cc2F)CC1 [KP-103, (2R,3R)-2-(2,4-difluorophenyl)-3-(4-methylenepiperidine-1-yl)-1-(1H-1,2,4-triazole-1-yl)butane-2-ol] | <1.3** Log CFU | 10/10** | 2.20 ± 0.56 | 0/10 | 16/20 | 19/20 | 20/20 | – | – | – | – | 17/20 | 85
4 | CCC(C)(C)c1ccc(CC(C)CN2C[C@@H](C)O[C@@H](C)C2)cc1 (stereo partly shown) [Amorolfine solution, amorolfine] | 1.74 ± 0.45 Log CFU | 4/10 | 3.26 ± 0.54 | 0/10 | – | – | – | – | – | – | – | – | –
